The record followed here is article PMC12152945, “Computational Design of Lysine Targeting Covalent Binders Using Rosetta” (Journal of Chemical Information and Modeling, 2025).

The target of one experiment is T1, MKK7 (Homo sapiens, UniProt O14733).
T1 construct: gene MAP2K7; GST or His-tagged kinase from Reaction Biology (33PanQinase assay)
T1 sequence (O14733 2-419): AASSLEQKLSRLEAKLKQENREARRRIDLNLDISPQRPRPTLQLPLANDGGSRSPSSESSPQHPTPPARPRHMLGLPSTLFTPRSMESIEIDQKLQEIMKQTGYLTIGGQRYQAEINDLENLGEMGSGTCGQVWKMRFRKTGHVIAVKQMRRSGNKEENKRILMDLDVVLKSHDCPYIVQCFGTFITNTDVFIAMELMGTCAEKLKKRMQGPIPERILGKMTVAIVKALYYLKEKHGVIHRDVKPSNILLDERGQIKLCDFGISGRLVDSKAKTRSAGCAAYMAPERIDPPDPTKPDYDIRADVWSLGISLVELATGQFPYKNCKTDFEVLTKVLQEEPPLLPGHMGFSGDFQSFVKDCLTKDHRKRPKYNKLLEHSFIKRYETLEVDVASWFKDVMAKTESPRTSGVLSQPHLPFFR
Briefly: radiometric […] kinase assay ([…]PanQinase). The experiment is classed as biochemical. The following applies: 3 μM ATP, 75.6 nM MKK7, JNK1 K55R K56R substrate; 3 mM MgCl2, 3 mM MnCl2, pH 7.5, 30 °C; 30 min preincubation; reversible covalent (imine, Lys221).

A further experiment concerns the target T2, MKK7 kinase domain (Homo sapiens, UniProt O14733).
T2 construct: gene MAP2K7; His-tagged kinase domain for intact-protein LC/MS
T2 sequence (O14733 117-419 limits assumed): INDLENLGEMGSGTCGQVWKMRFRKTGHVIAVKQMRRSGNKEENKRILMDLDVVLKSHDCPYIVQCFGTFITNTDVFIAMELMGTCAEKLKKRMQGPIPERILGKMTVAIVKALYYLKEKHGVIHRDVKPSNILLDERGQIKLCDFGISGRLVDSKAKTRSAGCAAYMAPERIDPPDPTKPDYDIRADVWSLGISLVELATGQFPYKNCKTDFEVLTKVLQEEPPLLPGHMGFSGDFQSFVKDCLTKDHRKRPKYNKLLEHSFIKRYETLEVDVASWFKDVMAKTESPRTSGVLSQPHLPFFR
The experiment in a line: intact protein LC/MS. The experiment is classed as binding. The following applies: covalent, reversible imine trapped with 5 mM NaBH4; 2 μM protein, HEPES pH 7.5, overnight 4 °C.

In general, IC50 refers to the concentration that inhibits the measured activity by half. A low value points to inhibition by little substance. The molecule `O=Cc1ccc(-c2n[nH]c3ccccc23)cc1O` [compound 1] yielded an IC50 against MKK7 of 738 nM. For the same molecule, the “intact protein LC/MS” value at MKK7 kinase domain is reported as “Significant labeling was detected only after the reduction of the complex”.
